Assays:
RSV-infected HEp-2 cells = experiment: MTT assay of viable metabolically active RSV-infected HEp-2 cells (cytopathic effects); type: cell-based; details: for viable HEp-2 cells surviving RSV infection at 5 days, pre-treatment condition: simultaneous RSV MOI = 0.005 and LL-37 0–50 µg/ml, scrambled LL-37 50 µg/ml or ribavirin 200 µM for 2 hours, 5 days without treatment; for protection of RSV-infected HEp-2 cells from cell death at 5 days, continuous treatment condition: treatment re-added after wash and present for 5 days, ribavirin 200 µM, LL-37 p<0.01, ribavirin p<0.001 vs untreated infected
Method: HEp-2 cells were treated with LL-37, a scrambled control LL-37 at 50 µg/ml or ribavirin (200 µM; Sigma Aldrich), in the presence or absence of simultaneous infection with RSV (MOI = 0.005). Cells were incubated for 2 hours at 37°C, washed and placed in fresh media. In some wells LL-37 or ribavirin was added again at this point (for “continuous treatment”). Cells were cultured at 37°C for 24 hours or 5 days, after which the number of viable metabolically active cells was assessed using an MTT assay (Sigma Aldrich) according to manufacturer's instructions (7.5 mg/ml, 37°C, 4 hours). Resulting formazan was dissolved in dimethylsulfoxide (Sigma Aldrich) and optical density was measured at 450 nm. Alternatively, cells simultaneously treated with or without LL-37 in presence or absence of RSV infection were allowed to dry for 10 minutes before they were fixed and permeabilised using ice-cold acetone/methanol (1∶1) for 10 minutes at 4°C. After a wash with PBS, cells were subjected to TUNEL assay using an In situ cell death kit (Roche Applied Science, UK) according to manufacturer's instructions. Cells were washed three times with PBS and 1 µg/ml DAPI was included in the second wash (3 minutes staining). Cells were examined by fluorescent microscopy, four representative images per well were captured using an EVOS fl imaging system (PEQLAB Ltd) and TUNEL positive and negative cells were quantified using ImageJ (http://rsbweb.nih.gov/ij/index.html).

HEp-2 cells [1] = experiment: TUNEL assay of cell death in HEp-2 cells; type: cell-based, human; details: in the presence or absence of RSV or LL-37, 24 hours after infection; data not shown
Method: (§1) HEp-2 cells were treated with LL-37, a scrambled control LL-37 at 50 µg/ml or ribavirin (200 µM; Sigma Aldrich), in the presence or absence of simultaneous infection with RSV (MOI = 0.005). Cells were incubated for 2 hours at 37°C, washed and placed in fresh media. In some wells LL-37 or ribavirin was added again at this point (for “continuous treatment”). Cells were cultured at 37°C for 24 hours or 5 days, after which the number of viable metabolically active cells was assessed using an MTT assay (Sigma Aldrich) according to manufacturer's instructions (7.5 mg/ml, 37°C, 4 hours). Resulting formazan was dissolved in dimethylsulfoxide (Sigma Aldrich) and optical density was measured at 450 nm. Alternatively, cells simultaneously treated with or without LL-37 in presence or absence of RSV infection were allowed to dry for 10 minutes before they were fixed and permeabilised using ice-cold acetone/methanol (1∶1) for 10 minutes at 4°C. After a wash with PBS, cells were subjected to TUNEL assay using an In situ cell death kit (Roche Applied Science, UK) according to manufacturer's instructions. […] Cells were examined by fluorescent microscopy, four representative images per well were captured using an EVOS fl imaging system (PEQLAB Ltd) and TUNEL positive and negative cells were quantified using ImageJ (http://rsbweb.nih.gov/ij/index.html).

RSV [2] = experiment: Spread of RSV infection in HEp-2 cultures over 48 and 72 hours (immunoplaque, image analysis); type: cell-based, RSV strain A2; details: washed, 48 or 72 hours, n = 3
Method: (§2) An immunoplaque assay (based on) was used to quantify RSV infected cells. Optimisation of the infection protocol was conducted using serial dilutions of RSV to assess the PFU of propagated virus stocks and establish an optimal MOI of 0.005 that allowed reliable counting of individual infected cells (approximately 100–250 per well) in a control infected culture at 24 hours. Peptide treatments were therefore primarily evaluated at RSV MOI = 0.005, however higher MOIs (up to 1) were also tested and similar effects of peptides were observed (data not shown). […] Cells were stained using 3-amino-ethylcarbazole substrate (Invitrogen/Life technologies) according to manufacturer's instructions for 15 minutes, washed 3 times with PBS and infected RSV positive foci were quantified by light microscopy, counting 3–4 wells per condition. […] Quantification was performed using the ImageJ plugin Treshold_colour to measure the percentage of cells positive for RSV infection. 3 wells were assessed per condition, using 4 random fields of view captured per well. To assess the production of infectious viral particles, supernatants were serially diluted and transferred to fresh HEp-2 monolayers, incubated for 2 hours at 37°C, washed, incubated for a further 24 hours and then assessed by immunoplaque assay.

RSV viral particles = experiment: Direct viral inactivation assay; type: cell-based, RSV strain A2
Method: A modified viral inactivation assay was performed. 1 ml RSV (PFU = 2×10^3, equivalent to MOI = 0.05) was mixed with 25 µg/ml LL-37, followed by immediate 10-fold dilution in serum-free medium to reach sub-therapeutic concentrations of LL-37 (2.5 µg/ml) and RSV MOI = 0.005. 25 µg/ml scrambled LL-37 or PBS were used as negative controls. HEp-2 monolayers were infected with this virus/peptide mixture for 2 hours then washed, before cells were cultured in serum-free medium for 24 hours. Fixed monolayers were subjected to immunoplaque assay.

RSV [3] = experiment: Production of new infectious viral particles (supernatant transfer to fresh HEp-2 cells, immunoplaque assay); type: cell-based, RSV strain A2
Method: as §2

RSV [4] = experiment: Immunoplaque assay of RSV-infected HEp-2 cells at 24 hours; type: cell-based, RSV strain A2; details: for reduction in number of infected cells: then 2 hours infection
Method: RSV strain A2 (VR-1540) was purchased from ATCC. RSV was propagated in HEp-2 cells by infecting 5×10^6 cells that were allowed to grow on confluent overnight in serum-free VP-SFM media (Gibco) for 2 hours with 0.1 plaque forming units (PFU) followed by removal of inoculum. Cells were then incubated for 24 hours in 10% FCS Gold (PAA Laboratories) supplemented VP-SFM. Cells were then incubated for a further 5 days in 2% FCS Gold supplemented VP-SFM, cells were harvested and supernatant was snap-frozen and stored at −80°C.
An immunoplaque assay (based on) was used to quantify RSV infected cells. Optimisation of the infection protocol was conducted using serial dilutions of RSV to assess the PFU of propagated virus stocks and establish an optimal MOI of 0.005 that allowed reliable counting of individual infected cells (approximately 100–250 per well) in a control infected culture at 24 hours. Peptide treatments were therefore primarily evaluated at RSV MOI = 0.005, however higher MOIs (up to 1) were also tested and similar effects of peptides were observed (data not shown). For experimental assessment of the antiviral effects of peptides, cells were seeded at 2×10^4 per well in 96-well plates and cultured overnight, then washed and infected, in fresh serum-free medium. After 2 hours, inoculum was removed and cells were cultured in fresh medium for 24, 48 or 72 hours before analysis. Peptides were added before, after or concomitantly with RSV infection as described for individual experiments. Monolayers were fixed in absolute methanol/2% hydrogen peroxide solution for 30 minutes and washed twice with PBS. Cells were exposed to monoclonal biotinylated anti-RSV antibody in 5% BSA/PBS for 1 hour (1∶200, AbD Serotec, Kidlington, UK), washed twice with PBS and were incubated with extravidin peroxidase in 5% BSA/PBS for 30 minutes (1∶500, Sigma Aldrich). Cells were stained using 3-amino-ethylcarbazole substrate (Invitrogen/Life technologies) according to manufacturer's instructions for 15 minutes, washed 3 times with PBS and infected RSV positive foci were quantified by light microscopy, counting 3–4 wells per condition. For later timepoint analysis (48 and 72 hours post infection with RSV MOI = 0.0005), fixed and stained monolayers were examined by light microscopy and images were captured using an EVOS fl imaging system (PEQLAB Ltd, UK). Quantification was performed using the ImageJ plugin Treshold_colour to measure the percentage of cells positive for RSV infection. 3 wells were assessed per condition, using 4 random fields of view captured per well. To assess the production of infectious viral particles, supernatants were serially diluted and transferred to fresh HEp-2 monolayers, incubated for 2 hours at 37°C, washed, incubated for a further 24 hours and then assessed by immunoplaque assay.

HEp-2 cells [5] = experiment: MTT assay of uninfected HEp-2 cells; type: cell-based, human; details: LL-37 ≤50 µg/ml, 2 hours, washed, n = 3-4
Method: as §1

RSV [6] = experiment: Immunoplaque assay of RSV-infected Vero cells (type I interferon deficient) at 24 hours; type: cell-based, RSV strain A2; details: 25 µg/ml simultaneous with RSV MOI = 0.005 for 2 hours, p<0.001, n = 3-5
Method: (§3) HEp-2 cells (ATCC CCL-23), Vero cells (ATCC CCL-81) and 16HBE14o^- transformed human bronchial epithelial cells (a kind gift from Dieter Gruenert, University of California) were cultured in DMEM/F12 (Gibco/Life Technologies Ltd, Paisley, UK) or RPMI (Gibco) respectively, supplemented with 2 mM L-glutamine (PAA Laboratories, Yeovil, UK) and 10% FCS (Biosera, East Sussex, UK), at 37°C and 5% CO2. 16HBE14o^- cells were cultured on wells previously coated with a basement layer of collagen IV (5 µg/ml), fibronectin (10 µg/ml) and bovine serum albumin (100 µg/ml) (all Sigma Aldrich, Dorset, UK).
(§4) An immunoplaque assay (based on) was used to quantify RSV infected cells. […] Peptide treatments were therefore primarily evaluated at RSV MOI = 0.005, however higher MOIs (up to 1) were also tested and similar effects of peptides were observed (data not shown). […] Cells were stained using 3-amino-ethylcarbazole substrate (Invitrogen/Life technologies) according to manufacturer's instructions for 15 minutes, washed 3 times with PBS and infected RSV positive foci were quantified by light microscopy, counting 3–4 wells per condition. […] Quantification was performed using the ImageJ plugin Treshold_colour to measure the percentage of cells positive for RSV infection. 3 wells were assessed per condition, using 4 random fields of view captured per well. […]

RSV [7] = experiment: Immunoplaque assay of RSV-infected 16HBE14o- cells at 24 hours; type: cell-based, RSV strain A2; details: RSV MOI = 0.005, simultaneous peptide and virus 2 hours, washed, n = 3-5
Method: as §3, §4

Compound: NC(=O)c1ncn([C@@H]2O[C@H](CO)[C@@H](O)[C@H]2O)n1 [ribavirin, reference compound]
- viable HEp-2 cells surviving RSV infection at 5 days, pre-treatment condition (RSV-infected HEp-2 cells; washed, n = 3-4): Neither scrambled LL-37 nor the antiviral ribavirin had any direct effect
- protection of RSV-infected HEp-2 cells from cell death at 5 days, continuous treatment condition (RSV-infected HEp-2 cells): significant protection of epithelial cells from cell death

Compound: LL-37: active form of the sole human cathelicidin hCAP-18; cationic host defence peptide
- TUNEL positive HEp-2 cells (HEp-2 cells [1]): 0.5–1.5%
- number of metabolically active RSV-infected HEp-2 cells at 24 hours (RSV-infected HEp-2 cells; LL-37 ≤50 µg/ml, RSV MOI = 0.005, 2 hours, washed, 24 hours, OD 450 nm, n = 3-4): did not have any substantial effect
- viable HEp-2 cells surviving RSV infection at 5 days, pre-treatment condition (RSV-infected HEp-2 cells; washed, n = 3-4): significantly more viable HEp-2 cells surviving RSV infection in a dose-dependent manner
- protection of RSV-infected HEp-2 cells from cell death at 5 days, continuous treatment condition (RSV-infected HEp-2 cells): significant protection of epithelial cells from cell death
- spread of infection beyond initially infected cells, LL-37 added after RSV infection (virus first) (RSV [2]; HEp-2, RSV MOI = 0.0005 2 hours, 25 µg/ml LL-37 1 hour): spread of infection beyond the cells initially infected was minimised
- spread of infection beyond initially infected cells, peptide added simultaneously with RSV (RSV [2]; HEp-2, RSV MOI = 0.0005, 25 µg/ml peptide 2 hours): spread of infection beyond the cells initially infected was minimised
- antiviral effect of virus and cell exposure to 2.5 µg/ml LL-37 (RSV viral particles; RSV MOI = 0.005 pre-mixed with 2.5 µg/ml LL-37 before immediate use, HEp-2, 24 hours): no significant effects
- antiviral effect of virus exposure to 25 µg/ml peptide followed by 1 in 10 dilution (cell exposure 2.5 µg/ml) (RSV viral particles; RSV MOI = 0.05 pre-mixed with 25 µg/ml, immediate 1:10 dilution, HEp-2 infected 2 hours, 24 hours, immunoplaque, n≥3): significant antiviral effects
- infectivity of supernatant at day 3 with LL-37 remaining in the media (continuous) (RSV [3]; 25 µg/ml LL-37 replaced after wash, 3 days, p<0.05): reducing infectivity up to day 3
- production of new infectious viral particles (RSV [3]; HEp-2, RSV with 25 µg/ml peptide 2 hours, washed, fresh media with or without peptide, supernatant infectivity on fresh HEp-2, p<0.001, n = 3): very substantially, fewer new infectious viral particles
- decrease in the number of initially infected cells (RSV [4]; 25 µg/ml LL-37, in vitro): approximately 1 log
- antiviral activity against RSV in HEp-2 cells (RSV [4]; 25 µg/ml simultaneous with RSV MOI = 0.005 for 2 hours, 24 hours, p<0.001, n = 3-5): identical significant antiviral activity
- LL-37 concentration giving significant, concentration-dependent reduction in infectivity (number of RSV-infected cells) (RSV [4]; HEp-2, RSV MOI = 0.005, simultaneous peptide and virus 2 hours, washed, 24 hours at 37°C, p<0.05 vs virus alone, mean of n = 3-5): ≥ 10 µg/mL
- antiviral effect, LL-37 treatment delayed until 2 hours after viral infection (Virus first) (RSV [4]; HEp-2, RSV MOI = 0.005 for 2 hours, washed, then 1 hour LL-37, infected cells at 24 hours): loss of the antiviral effect
- reduction in number of infected cells (RSV [4]; HEp-2, RSV preincubated with 25 µg/ml LL-37 for 1 hour at 4°C, 24 hours, p<0.001): approximately 1 log
- reduction in number of infected cells (RSV [4]; HEp-2, RSV preincubated with 25 µg/ml LL-37 for 1 hour at 37°C, 24 hours, p<0.01): approximately 1 log
- antiviral activity of full length and 22-mer partial peptides (number of infected cells) (RSV [4]; HEp-2, simultaneous RSV MOI = 0.005 and peptide at 1, 10 and 25 µg/ml for 2 hours, washed, 24 hours, n = 3): significant antiviral activity
- protection against RSV infection when infection delayed up to 3 hours after LL-37 treatment and cell washing (RSV [4]; HEp-2 pre-treated 25 µg/ml LL-37 1 hour, washed, RSV MOI = 0.005 at 1 or 3 hours, p<0.001, n≥3): significant protection against RSV infection
- protection against RSV infection when infection delayed 24 hours after LL-37 treatment and cell washing (RSV [4]; HEp-2 pre-treated 25 µg/ml LL-37 1 hour, washed, RSV MOI = 0.005 at 24 hours): no protection evident
- RSV infection after pre-incubation of cells with LL-37 and washing (LL-37 first) (RSV [4]; HEp-2 treated with LL-37 1 hour, washed, 2 hour RSV infection MOI = 0.005, 24 hours, p<0.001): significantly less RSV infection
- number of metabolically active uninfected HEp-2 cells after 5 days (HEp-2 cells [5]): did not affect the number of metabolically active HEp-2 cells
- antiviral activity against RSV in Vero cells (RSV [6]): identical significant antiviral activity
- antiviral effect (number of RSV-infected cells relative to untreated infected cells) (RSV [7]): The same effect was observed

— publication PMC3758310, “The Human Cathelicidin LL-37 Has Antiviral Activity against Respiratory Syncytial Virus” (PLoS ONE, 2013)
